Test results published in PMC13576449, “Small-Molecule Activators of PRMT1: Discovery, SAR Analyses, and Proapoptotic Effects in Pancreatic Cancer Cells” (Journal of Medicinal Chemistry, 2026).

What was measured:
PaTu8988T cells = assay: CaspaseGlo 3/7 apoptosis assay, PaTu8988T; type: cell-based, human; details: 72 h
Method: 6 Effect of small-molecule modulators on gemcitabine-induced apoptosis and tumor growth of PDAC cells. […] After 2 h, gemcitabine (GEM) was added at increasing concentrations (10 and 25 nM) or not (−) for another incubation of 72 h. Subsequently, the luminescence-based caspase3/7 assay was performed. The activity of caspase 3/7 in treated cells was normalized to the activity measured in untreated cells (dark gray bar), which was set to 1 (mean SD, n = 6 for PANC-1 and n = 4 for PaTu8988T; *: p ≤ 0.05, **: p ≤ 0.01, ***: p ≤ 0.001, using the student t-test). […] After 24 h, gemcitabine (GEM, 1 μM) was added (+) or not (−) for another incubation of 48 h. Subsequently, the apoptotic cell fraction was quantified in % by flow cytometry using FITC-labeled Annexin V (AV) and propidium iodide (PI) staining (in B: mean ± SD, n = 6 for PANC-1 and n = 5 for PaTu8988T; **: p ≤ 0.01, ***: p ≤ 0.001, ****: p ≤ 0.0001, using the student t-test). […] Viable cells are AV/PI double-negative (AV–/PI–, lower left quadrant, Q4), early apoptotic cells are AV single-positive (AV+/PI– upper left quadrant, Q1), late apoptotic cells are AV/PI double-positive (AV+/PI+, upper right quadrant, Q2), and necrotic cells are PI single-positive (AV–/PI+, lower right quadrant, Q3). The sum of early and late apoptotic cell numbers ([…] in %) is indicated in red. D-G: The workflow of the PDAC xenograft experiments in mice is depicted in D. PANC-1 cells (2 × 10^6 cells/mouse) were subcutaneously (s.c.) injected in the right flank of female athymic nude mice. Small tumor nodules appeared 6 days post-engraftment. […] Tumor volumes were measured every second day using a digital caliper. […] At the end of the 2 weeks, mice were sacrificed and tumors were dissected (F).
For quantification of apoptosis using the CaspaseGlo 3/7 assay (Promega), PANC-1 and PaTu8988T cells were seeded in triplicates in white 96-well plate (5 × 10^3 cells/well) and cultured in the absence or presence of compounds. After 2 h, as soon as the cells had settled, gemcitabine was added or not, and cells were incubated for another 72 h. Subsequently, the caspase3/7 activity was measured using the luminescence-based CaspaseGLO-3/7 assay (Promega). To this end, the CaspaseGlo reagent was subsequently added to the cells at a 1:1 ratio and incubated at room temperature and under agitation for 30 min protected from light. The luminescence measurements were carried out using a microplate reader (Mithras LB 940, Berthold).

FLAG-tagged PRMT3 = target: T1, FLAG-tagged PRMT3 (Homo sapiens, UniProt O60678); assay: Fluorescence-based in vitro PRMT assay (F-PRMT assay), PRMT3; type: biochemical; details: for Experimental result (PRMT3): vs solvent control = 100%
T1 construct: The complete ORFs of human PRMT3 and PRMT6 were inserted; made in house; host or cells: Sf9 insect cells (baculovirus)
T1 sequence (O60678 whole entry): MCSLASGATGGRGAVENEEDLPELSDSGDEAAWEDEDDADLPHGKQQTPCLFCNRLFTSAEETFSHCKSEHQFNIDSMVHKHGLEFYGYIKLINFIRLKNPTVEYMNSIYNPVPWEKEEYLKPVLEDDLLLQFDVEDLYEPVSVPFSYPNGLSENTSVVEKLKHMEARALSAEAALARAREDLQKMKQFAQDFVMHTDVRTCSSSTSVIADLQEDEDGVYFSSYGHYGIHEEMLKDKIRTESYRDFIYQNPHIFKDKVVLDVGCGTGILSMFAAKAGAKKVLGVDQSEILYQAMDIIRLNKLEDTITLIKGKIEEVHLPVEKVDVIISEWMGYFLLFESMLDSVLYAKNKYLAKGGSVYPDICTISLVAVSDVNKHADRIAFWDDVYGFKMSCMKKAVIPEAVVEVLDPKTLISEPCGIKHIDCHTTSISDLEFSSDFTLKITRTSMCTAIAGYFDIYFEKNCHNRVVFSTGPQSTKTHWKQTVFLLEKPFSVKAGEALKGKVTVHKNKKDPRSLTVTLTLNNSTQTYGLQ
From the text: To evaluate the effects of the selected candidate molecules on the catalytic activity of type I enzymes, we employed a quantitative fluorescence-based in vitro PRMT activity (F-PRMT) assay using recombinant FLAG-tagged PRMT proteins expressed and affinity-purified from baculovirus-infected Sf9 cells (SI Figure S1, SI Figure S2A).
Human cell lines (PaTu8988T, PANC-1) were obtained from ATCC (American Type Culture Collection) and cultured in DMEM supplemented with 10% fetal calf serum (FCS, Gibco/BRL), 1% penicillin/streptomycin at 37 °C and 5% CO2. […] For PRMT1 inhibition, cells were treated with type I PRMT inhibitor MS023 hydrochloride (Biomol). For induction of genotoxic stress, cells were treated with gemcitabine (LC Laboratories). […] The following plasmids were used: pFASTBAC-FLAG-rat PRMT1, pFASTBAC-FLAG-mouse PRMT4, and pGEX-GAR. The complete ORFs of human PRMT3 and PRMT6 were inserted into the pFASTBAC HT-3xFLAG B vector via BamHI/HindIII and BamHI/XhoI sites, respectively.
For PRMT protein expression in insect cells, recombinant baculovirus (bacmid) was generated using the Bac-to-Bac baculovirus system (Invitrogen). Sf9 cells were transfected with bacmid DNA using X-tremeGENE HP DNA transfection reagent (Sigma-Aldrich) according to the manufacturer's instructions. After 3–5 days, supernatants were collected, filtered, and used to infect Sf9 cells to amplify the virus. After 2 rounds of virus amplification and estimation of the final P3 virus titer, the P3 virus (2–5 μL/10^6 cells) was applied for large-scale infection of 200 × 10^6 Sf9 cells in suspension culture at a density of 1 × 10^6 cells/mL. Cells were harvested 5–6 days post-infection by centrifugation at 500 g for 5 min at room temperature. Protein purification from baculovirus-infected Sf9 cells was performed as previously described. , Cells were lysed in BC buffer (20 mM HEPES pH 7.9, 250 mM NaCl, 10% (v/v) glycerin, 0.4 mM EDTA, 1 mM DTT) containing a protease inhibitor cocktail (Roche) by 3 freeze-thaw cycles. After centrifugation at 11,000 rpm (Sorval SS34 rotor) and 4 °C for 1 h, the supernatant (whole cell protein extract) was incubated with anti-FLAG M2 Affinity Gel (Cytiva) at 4 °C and under agitation for 4 h. Subsequently, beads were washed in BC buffer containing various NaCl concentrations (once in BC with 1 M NaCl, twice in BC with 500 mM NaCl, twice in BC with 250 mM NaCl and twice in BC with 100 mM NaCl). FLAG-tagged proteins were either maintained bead-bound as a 50% (v/v) slurry in BC buffer with 100 mM NaCl and stored at −80 °C or were eluted in the appropriate elution buffer (depending on the subsequent assay) containing 0.25 mg/mL 3xFLAG peptides (Sigma-Aldrich) at 4 °C for 30–45 min. To remove the FLAG-peptides from the eluate, dialysis was performed in elution buffer containing 10% (v/v) glycerol at 4 °C for 4–6 h using Slide-A-Lyzer Dialysis Devices (Thermo Fisher Scientific) according to the manufacturer’s recommendations.
In the first step, the fluorogenic substrate Nα-Benzoyl-L-arginine-7-amido-4-methylcoumarin (Bz-Arg-AMC, Sigma-Aldrich) undergoes methylation by PRMTs upon the addition of the cofactor SAM. In the second reaction step, trypsin cleaves the nonmethylated substrate, leading to the generation of the 7-amino-4-methylcoumarin product, which can be quantified by subsequent fluorescence measurement (excitation: 355 nm, emission: 460 nm). The first reaction was conducted with bead-bound PRMTs at a total volume of 100 μL. Each condition was performed as a technical triplicate to determine the mean and the standard deviation. […] For the negative controls, SAM was substituted with assay buffer. The incubation was continued at 37 °C and under agitation (1,000 rpm) for a duration of 2 h.

[1] = Tolerability, body weight monitoring of xenograft mice; details: female athymic nude mice, 150 mg/kg TR-07 daily, 10 mg/kg gemcitabine every second day, 2 weeks

Row | Compound | apoptosis, caspase 3/7 activity, single agent (PaTu8988T cells; TR-07 10 μM or gemcitabine 10 and 25 nM) | gemcitabine-induced apoptosis, caspase 3/7 activity, co-treatment (PaTu8988T cells; compound 10 μM, after 2 h gemcitabine 10 and 25 nM) | effect on PRMT3 activity (in words) (FLAG-tagged PRMT3; 100 μM compound) | Experimental result (PRMT3) (FLAG-tagged PRMT3; Table 1, 100 μM compound, 2 μM PRMT, n = 3, racemates used) | Experimental result (PRMT3) (FLAG-tagged PRMT3; Table S3, 100 µM compound, n≥3) | tolerability (adverse or systemic toxic effects, body weights) [1]
1 | CN(C)Cc1cccc(CN/C=C2\C(=O)NC(=O)c3ccccc32)c1.Cl [TR-07, (Z)-1-[3-({[(1,3-Dioxo-2,3-dihydroisoquinolin-4(1H)-lidene)methyl]amino}methyl)phenyl]-N,N-dimethylmethanaminium chloride] | did not significantly induce apoptosis | further significantly enhanced | neither positively nor negatively influencing | PRMT3 n.e. (Compounds, which did not significantly affect the catalytic activity (less than ±6% change or not significant p-value), are marked with [drawing 8] (no effect)) | n.e. (did not significantly affect the catalytic activity (less than ±6% change or not significant p-value), are marked with n.e. (no effect)) | well tolerated
2 | (Z)-2-(2-{[(1,3-Dioxo-2,3-dihydroisoquinolin-4(1H)-ylidene)methyl]amino}phenyl)-N,N-dimethylethan-1-aminium chloride [ICTR-059] | – | – | concomitant PRMT3 activation | – | – | –
